Patent US7750003B2, “Compounds-943” (AstraZeneca AB, priority 2006, dated 2010)

Tested on: phosphorylation of Serine 473 in Akt in MDA-MB-468 human breast adenocarcinoma cells
Assay: In vitro phospho-Ser473 Akt assay (Test (c))
Type: cell-based
Settings: Homo sapiens, MDA-MB-468, 2 h, MDA-MB-468 cells, 2 hours incubation; read-out: Test (c): IC50 versus Serine 473 in Akt
Protocol: (c) In Vitro Phospho-Ser473 Akt Assay
This assay determines the ability of test compounds to inhibit phosphorylation of Serine 473 in Akt as assessed using Acumen Explorer technology (Acumen Bioscience Limited), a plate reader that can be used to rapidly quantitate features of images generated by laser-scanning.
A MDA-MB-468 human breast adenocarcinoma cell line (LGC Promochem, Teddington, Middlesex, UK, Catalogue No. HTB-132) was routinely maintained at 37° C. with 5% CO2 up to a confluency of 70-90% in DMEM containing 10% heat-inactivated FCS and 1% L-glutamine.
For the assay, the cells were detached from the culture flask using ‘Accutase’ (Innovative Cell Technologies Inc., San Diego, Calif., USA; Catalogue No. AT104) using standard tissue culture methods and resuspended in media to give 1.7×10^5 cells per mL. Aliquots (90 μl) were seeded into each of the inner 60 wells of a black Packard 96 well plate (PerkinElmer, Boston, Mass., USA; Catalogue No. 6005182) to give a density of 15000 cells per well. Aliquots (90 μl) of culture media were placed in the outer wells to prevent edge effects. The cells were incubated overnight at 37° C. with 5% CO2 to allow them to adhere.
On day 2, the cells were treated with test compounds and incubated for 2 hours at 37° C. with 5% CO2. Test compounds were prepared as 10 mM stock solutions in DMSO and serially diluted as required with growth media to give a range of concentrations that were 10-fold the required final test concentrations. Aliquots (10 μl) of each compound dilution were placed in a well (in triplicate) to give the final required concentrations. As a minimum response control, each plate contained wells having a final concentration of 100 μM LY294002 (Calbiochem, Beeston, UK, Catalogue No. 440202). As a maximum response control, wells contained 1% DMSO instead of test compound. Following incubation, the contents of the plates were fixed by treatment with a 1.6% aqueous formaldehyde solution (Sigma, Poole, Dorset, UK, Catalogue No. F1635) at room temperature for 1 hour.
All subsequent aspiration and wash steps were carried out using a Tecan 96 well plate washer (aspiration speed 10 mm/sec). The fixing solution was removed and the contents of the plates were washed with phosphate-buffered saline (PBS; 50 μl; Gibco, Catalogue No. 10010015). The contents of the plates were treated for 10 minutes at room temperature with an aliquot (50 μl) of a cell permeabilisation buffer consisting of a mixture of PBS and 0.5% Tween-20. The ‘permeabilisation’ buffer was removed and non-specific binding sites were blocked by treatment for 1 hour at room temperature of an aliquot (50 μl) of a blocking buffer consisting of 5% dried skimmed milk [‘Marvel’ (registered trade mark); Premier Beverages, Stafford, GB] in a mixture of PBS and 0.05% Tween-20. The ‘blocking’ buffer was removed and the cells were incubated for 1 hour at room temperature with rabbit anti phospho-Akt (Ser473) antibody solution (50 μl per well; Cell Signalling, Hitchin, Herts, U.K., Catalogue No 9277) that had been diluted 1:500 in ‘blocking’ buffer. Cells were washed three times in a mixture of PBS and 0.05% Tween-20. Subsequently, cells were incubated for 1 hour at room temperature with Alexafluor488 labelled goat anti-rabbit IgG (50 μl per well; Molecular Probes, Invitrogen Limited, Paisley, UK, Catalogue No. A11008) that had been diluted 1:500 in ‘blocking’ buffer. Cells were washed 3 times with a mixture of PBS and 0.05% Tween-20. An aliquot of PBS (50 μl) was added to each well and the plates were sealed with black plate sealers and the fluorescence signal was detected and analysed.
Fluorescence dose response data obtained with each compound were analysed and the degree of inhibition of Serine 473 in Akt was expressed as an IC50 value.

IC50 [nM]	SMILES
2000	C[C@H]1COCCN1c1cc(C(C)(C)S(C)(=O)=O)nc(-c2ccc(NC(=O)NCC3CC3)cc2)n1 [Example 24aq, 3-(cyclopropylmethyl)-1-[4-[4-[(3S)-3-methylmorpholin-4-yl]-6-(2-methylsulfonylpropan-2-yl)pyrimidin-2-yl]phenyl]urea]
340	CCNC(=O)Nc1ccc(-c2nc(N3CCOC[C@@H]3C)cc(C(C)(C)S(=O)(=O)C3CC3)n2)cc1 [Example 57k, 1-[4-[4-(2-cyclopropylsulfonylpropan-2-yl)-6-[(3S)-3-methylmorpholin-4-yl]pyrimidin-2-yl]phenyl]-3-ethyl-urea]
180	CC(C)NC(=O)Nc1ccc(-c2nc(N3CCOC[C@@H]3C)cc(C(C)(C)S(=O)(=O)C(C)C)n2)cc1 [Example 60k, 1-[4-[4-[(3S)-3-methylmorpholin-4-yl]-6-(2-propan-2-ylsulfonyl-propan-2-yl)pyrimidin-2-yl]phenyl]-3-propan-2-yl-urea]
70	CCNC(=O)Nc1ccc(-c2nc(CS(=O)(=O)C3CC3)cc(N3CCOC[C@@H]3C)n2)cc1 [Example 57j, 1-[4-[4-(cyclopropylsulfonylmethyl)-6-[(3S)-3-methylmorpholin-4-yl]pyrimidin-2-yl]phenyl]-3-ethyl-urea]
640	CC(NC(=O)Nc1ccc(-c2nc(N3CCOC[C@@H]3C)cc(C(C)(C)S(C)(=O)=O)n2)cc1)c1cccnc1 (stereo partly drawn) [Example 24ax, 1-[4-[4-[(3S)-3-methylmorpholin-4-yl]-6-(2-methylsulfonylpropan-2-yl)pyrimidin-2-yl]phenyl]-3-(1-pyridin-3-ylethyl)urea]
790	C[C@H]1COCCN1c1cc(CS(=O)(=O)c2ccc(F)cc2)nc(-c2ccc(NC(=O)NCCCO)cc2)n1 [Example 61h, 1-[4-[4-[(4-fluorophenyl)sulfonylmethyl]-6-[(3S)-3-methylmorpholin-4-yl]pyrimidin-2-yl]phenyl]-3-(3-hydroxypropyl)urea]
240	C[C@H]1COCCN1c1cc(C(C)(C)S(C)(=O)=O)nc(-c2ccc(NC(=O)NCc3cccnc3)cc2)n1 [Example 24ao, 1-[4-[4-[(3S)-3-methylmorpholin-4-yl]-6-(2-methylsulfonylpropan-2-yl)pyrimidin-2-yl]phenyl]-3-(pyridin-3-ylmethyl)urea]
410	C[C@H]1COCCN1c1cc(CS(=O)(=O)c2ccc(F)cc2)nc(-c2ccc(NC(=O)NCCO)cc2)n1 [Example 61c, 1-[4-[4-[(4-fluorophenyl)sulfonylmethyl]-6-[(3S)-3-methylmorpholin-4-yl]pyrimidin-2-yl]phenyl]-3-(2-hydroxyethyl)urea]
38	CC(C)NC(=O)Nc1ccc(-c2nc(N3CCOC[C@@H]3C)cc(C(C)(C)S(C)(=O)=O)n2)cc1 [Example 24al, 1-[4-[4-[(3S)-3-methylmorpholin-4-yl]-6-(2-methylsulfonylpropan-2-yl)pyrimidin-2-yl]phenyl]-3-propan-2-yl-urea]
130	C[C@H]1COCCN1c1cc(CN2CCNC(=O)C2)nc(-c2ccc(NC(=O)NC3CC3)cc2)n1 [Example 49j, 3-cyclopropyl-1-[4-[4-[(3S)-3-methylmorpholin-4-yl]-6-[(3-oxopiperazin-1-yl)methyl]pyrimidin-2-yl]phenyl]urea]
160	C[C@H]1COCCN1c1cc(C(C)(C)S(=O)(=O)C(C)(C)C)nc(-c2ccc(NC(=O)NC3CCC3)cc2)n1 [Example 66d, 3-cyclobutyl-1-[4-[4-[(3S)-3-methylmorpholin-4-yl]-6-(2-tert-butylsulfonylpropan-2-yl)pyrimidin-2-yl]phenyl]urea]
210	C[C@H]1COCCN1c1cc(C(C)(C)S(C)(=O)=O)nc(-c2ccc(NC(=O)NC3CCC3)cc2)n1 [Example 24am, 3-cyclobutyl-1-[4-[4-[(3S)-3-methylmorpholin-4-yl]-6-(2-methylsulfonylpropan-2-yl)pyrimidin-2-yl]phenyl]urea]
210	CCCNC(=O)Nc1ccc(-c2nc(N3CCOC[C@@H]3C)cc(C(C)(C)S(C)(=O)=O)n2)cc1 [Example 24ak, 3-[4-[4-[(3S)-3-methylmorpholin-4-yl]-6-(2-methylsulfonylpropan-2-yl)pyrimidin-2-yl]phenyl]-1-propyl-urea]
99	CCNC(=O)Nc1ccc(-c2nc(N3CCOC[C@@H]3C)cc(C(C)(C)S(=O)(=O)c3ccc(F)cc3)n2)cc1 [Example 61l, 1-ethyl-3-[4-[4-[2-(4-fluorophenyl)sulfonylpropan-2-yl]-6-[(3S)-3-methylmorpholin-4-yl]pyrimidin-2-yl]phenyl]urea]
45	C[C@H]1COCCN1c1cc(C(C)(C)S(=O)(=O)c2ccc(F)cc2)nc(-c2ccc(NC(=O)NCCN(C)C)cc2)n1 [Example 61o, 3-(2-dimethylaminoethyl)-1-[4-[4-[2-(4-fluorophenyl)sulfonylpropan-2-yl]-6-[(3S)-3-methylmorpholin-4-yl]pyrimidin-2-yl]phenyl]urea]
2400	C[C@H]1COCCN1c1cc(C(C)(C)S(C)(=O)=O)nc(-c2ccc(NC(=O)N(C)C3CC3)cc2)n1 [Example 24bg, 1-cyclopropyl-1-methyl-3-[4-[4-[(3S)-3-methylmorpholin-4-yl]-6-(2-methylsulfonylpropan-2-yl)pyrimidin-2-yl]phenyl]urea]
120	CNC(=O)Nc1ccc(-c2nc(N3CCOC[C@@H]3C)cc(C(C)(C)S(=O)(=O)C(C)C)n2)cc1 [Example 60i, 3-methyl-1-[4-[4-[(3S)-3-methylmorpholin-4-yl]-6-(2-propan-2-ylsulfonylpropan-2-yl)pyrimidin-2-yl]phenyl]urea]
1400	CC(C)S(=O)(=O)C(C)(C)c1cc(N2CCOC[C@@H]2C)nc(-c2ccc(NC(=O)Nc3ccc(C(F)(F)F)cc3)cc2)n1 [Example 60t, 1-[4-[4-[(3S)-3-methylmorpholin-4-yl]-6-(2-propan-2-ylsulfonylpropan-2-yl)pyrimidin-2-yl]phenyl]-3-[4-(trifluoromethyl)phenyl]urea]
360	C[C@H]1COCCN1c1cc(C(C)(C)S(=O)(=O)C2CC2)nc(-c2ccc(NC(=O)Nc3cnn(C)c3)cc2)n1 [Example 57c, 1-[4-[4-(2-cyclopropylsulfonylpropan-2-yl)-6-[(3S)-3-methylmorpholin-4-yl]pyrimidin-2-yl]phenyl]-3-(1-methylpyrazol-4-yl)urea]
1900	Cc1nnc(S(=O)(=O)Cc2cc(N3CCOC[C@@H]3C)nc(-c3ccc(NC(=O)NC4CC4)cc3)n2)s1 [Example 43g, 3-cyclopropyl-1-[4-[4-[(3S)-3-methylmorpholin-4-yl]-6-[(5-methyl-1,3,4-thiadiazol-2-yl)sulfonylmethyl]pyrimidin-2-yl]phenyl]urea]
2900	C[C@H]1COCCN1c1cc(CS(=O)(=O)C23CC4CC(CC(C4)C2)C3)nc(-c2ccc(NC(=O)NC3CC3)cc2)n1 [Example 43k, 1-[4-[4-(1-adamantylsulfonylmethyl)-6-[(3S)-3-methylmorpholin-4-yl]pyrimidin-2-yl]phenyl]-3-cyclopropyl-urea]
620	C[C@H]1COCCN1c1cc(CN(C)C)nc(-c2ccc(NC(=O)NC3CC3)cc2)n1 [Example 49d, 3-cyclopropyl-1-[4-[4-(dimethylaminomethyl)-6-[(3S)-3-methylmorpholin-4-yl]pyrimidin-2-yl]phenyl]urea]
150	CC(C)S(=O)(=O)C(C)(C)c1cc(N2CCOC[C@@H]2C)nc(-c2ccc(NC(=O)NCCO)cc2)n1 [Example 60n, 3-(2-hydroxyethyl)-1-[4-[4-[(3S)-3-methylmorpholin-4-yl]-6-(2-propan-2-ylsulfonylpropan-2-yl)pyrimidin-2-yl]phenyl]urea]
